The subject of data set [1] is untransfected cell lines. Nature of the data set: TUNEL staining of untransfected cell lines. The following applies: 20.0 μg/ml, six to eight days (data not shown). In kind it is cell-based. From the text:
(§1) The DeadEnd Colorimetric Apoptosis Detection System (Promega, Wis.) is a modified TUNEL (TdT-mediated dUTP Nick-End Labeling) assay in which the enzyme Terminal deoxynucleotidyl Transferase (TdT) incorporates biotinylated nucleotides at the 3′-OH DNA ends (1, 20). Streptavidin horseradish-peroxidase is then bound to the biotinylated nucleotides, which are detected by hydrogen peroxide and diaminobenzidine (DAB), a stable chromogen. Using this procedure, apoptotic nuclei stained dark brown when visualized under a light microscope.

In data set [2] the test system is CaSki cells. Briefly: TUNEL apoptosis detection in transfected CaSki cells. In kind it is cell-based, human.
From the text: as §1

Data set [3] deals with CaSki cells. Briefly: MTS cell proliferation assay, GCV/ACV on transfected CaSki cells. As to conditions: for effect on cell viability: CaSki cells mock-transfected or transfected with control plasmid pNSGL0; for growth inhibition: CaSki cells transfected with HPV 16 LCR-driven HSV 1-TK plasmid, 20-30 μg/ml for 6-8 days. The method, then: All transfections were performed by calcium phosphate mediated transfection using the Profection Mammalian Transfection Systems (Promega, Wis.) according to the manufacturer's instructions. Cells were seeded at a density of 2×10^5 cells in each well in two mls of DMEM and grown to 50-60% confluence. One μg of plasmid DNA was used for transfecting each cell line. The calcium phosphate-DNA mix was overlaid on the cells for four to six hours and then replaced by two mls of complete medium. For mock-transfections, no DNA was added to the calcium phosphate transfection reagent. To measure promoter activity with a standard luciferase assay (Promega, Wis.) the transfected cells were harvested after 24-48 hours. To analyze HSV 1-TK gene expression by RT-PCR, the transfected cells were harvested 48-60 hours after transfection.
The CaSki, SiHa, HSC3 and HeLa cell lines were transfected with the pNSGLTK-8 or pNSGL0 plasmids or mock transfected with no plasmid. […] The absorbance at 490 nm is a measure of the number of living cells in the culture. Percent survival was calculated as follows: [formula]

Data set [4] deals with Human oral squamous cell carcinoma cell, SSC9. Briefly: GCV cytotoxicity on transfected SSC9 cells. The data set is classed as cell-based. As to conditions: SSC9 cells transfected with pNSGLTK-8; different concentrations, 6 days. From the text:
(§2) To test the specificity of the methods described herein, an HPV positive cell line (CaSKi) and four HPV-negative cell lines were transfected with the plasmid plasmid pNSGLTK-8 described herein.

Data set [5] has as its system SiHa cells. Nature of the data set: MTS cell proliferation assay, GCV on transfected SiHa cells. In kind it is cell-based, human. The following applies: SiHa cells transfected with pNSGLTK-8, 20.0 μg/ml. The method, then: (§3) Percent survival was calculated as follows: [formula]
On the technique in general: Tetrazolium assays rely on reduction of a dye to a coloured formazan, in cell work by metabolically active cells.

For data set [6], the system named is HeLa cells. Briefly: GCV killing of transfected HeLa cells. The data set is classed as cell-based, human. The following applies: HeLa cells transfected with pNSGLTK-8; 20.0 μg/ml, two weeks (data not shown). The protocol:
as §3

The test system of data set [7] is HSC3 cells. Briefly: GCV cytotoxicity on transfected HSC3 cells. The data set is classed as cell-based, human. As to conditions: HSC3 cells transfected with pNSGLTK-8; different concentrations, 6 days. The protocol: as §3
Data set [8] concerns VERO—African Green Monkey kidney cell line. Briefly: GCV cytotoxicity on transfected VERO cells. In kind it is cell-based. As to conditions: VERO cells transfected with pNSGLTK-8; different concentrations, 6 days.
From the text: as §2

The subject of data set [9] is CaSki cells. Briefly: Confocal microscopy of HSV1-TK protein and PI nuclear staining in transfected CaSki cells. In kind it is cell-based, human. The following applies: CaSki cells transfected with pNSGLTK-8; 20 ug/ml GCV for 2 days. The method, then:
CaSki cells were transfected with HPV16 LCR driven HSV1-TK construct (pNSGLTK-8). After 48 hours, cell were fixed and HSV-TK protein was detected using polyclonal rabbit anti-HSV1-TK antibody and FITC-conjugated goat anti-rabbit secondary antibody. The nuclear staining was done with propidium iodide. The cells were examined by confocal microscopy.
Cell were fixed and HSV1-TK protein was detected using polyclonal rabbit anti-HSV1-TK antibody and FITC-conjugated goat anti-rabbit secondary antibody. The nuclear staining was done with propidium iodide. The cells were examined by confocal microscopy.

Data set [10] relates to SiHa cells. Nature of the data set: TUNEL apoptosis detection in transfected SiHa cells. The data set is classed as cell-based, human. The following applies: SiHa cells transfected with pNSGLTK-8; 20.0 μg/ml GCV, eight to ten days.
From the text: as §1

For data set [11] the following is noted: taken orally by patients, clinical trials (Sugawara et al. 2000); cited from earlier work.

On to `Nc1nc2c(ncn2COCCO)c(=O)[nH]1` [ACV, acyclovir], for which the “apoptotic cells (TUNEL staining)” value in data set [1] was “did not show an increase in apoptotic cells”. Moreover, the “apoptosis (TUNEL staining, morphology)” value in data set [2] (cells transfected with pNSGLTK-8, 20.0 μg/ml ACV, six days (FIG. 12: CaSki)) is on record as “Typical apoptotic morphology of TUNEL-stained nuclei”. For the same compound, in data set [3], the “effect on cell viability” value was “refractory” and the growth inhibition entry was “approximately 80%”. In addition, in [3] (CaSki cells transfected with pNSGLTK-8, ten days exposure), the “concentration showing cytotoxic effects” value worked out at 30000 ng/mL.
Regarding `Nc1nc(O)c2ncn(COC(CO)CO)c2n1` [GCV, ganciclovir], the cytotoxic effect result in data set [4], in [7] and in [8] was “did not show any significant cytotoxic effect” throughout. Moreover, the cells killed result in [5] (six days) was “approximately 42%”; in data set [5] (two weeks (data not shown)), “more than 90%”; in data set [6] it was “more than 90%”; in data set [3] (CaSki cells transfected with pNSGLTK-8, 20.0 μg/ml, 10 days), “more than 95%”. Also, in data set [1], the “apoptotic cells (TUNEL staining)” value is listed as “did not show an increase in apoptotic cells”. The “apoptosis (TUNEL staining, morphology)” value in data set [2] (CaSki cells transfected with pNSGLTK-8, 20.0 μg/ml GCV, four days) is recorded as “characteristic apoptotic morphology”; in data set [10], “significant cell death associated with typical apoptotic morphology”. For the same compound, the cytotoxicity entry in [3] (CaSKi cells transfected with pNSGLTK-8, 6 days exposure) is “cytotoxicity is restricted to HPV positive cell line CaSKi only”. In addition, the “effect on cell viability” value in data set [3] is listed as “No significant effect on cell viability”. Further, the growth inhibition result in data set [3] is “approximately 80%”. For the same compound, the “effect on cell viability, dose dependence” value in [3] (CaSki cells transfected with pNSGLTK-8, 0, 5, 10, 20 μg/ml GCV, six days) is “dose-dependent effect”. Moreover, in data set [3] (CaSki cells transfected with pNSGLTK-8, 20.0 μg/ml, six days), the maximal cell death result was “approximately 80%”. For the same compound, the “nuclear staining by PI” value in data set [9] is reported as “majority of nuclei look disrupted due to early apoptosis”.
As for `CC(C)[C@H](N)C(=O)OCC(CO)OCn1cnc2c(=O)nc(N)[nH]c21` (stereo partly shown) [valganciclovir], in data set [11], the bioavailability result is given as “enhance the bioavailability of ganciclovir”.

The values are drawn from patent US20040214158A1, “Treatment of human papillomavirus (hpv)-infected cells” (priority 2000, published 2004).
